Measured values: patent US4902791A, “Nitrosourea derivatives, process for their preparation and medicaments containing them” (Sanofi S.A., priority 1983, dated 1990)

Assays:
colon carcinoma C38 = assay: colon carcinoma C38, comparison of I.V. and I.P. routes, treatment days 8, 12, 16; type: in vivo, mouse; parameters: key to Median wt. of the tumor D20 / Median wt. of the tumor D27: median tumor weight in mg; conditions: I.P. Route, 20 mg/kg/inj.
Protocol: With a view to verifying the antitumor activity of the product of the invention CI.1671 when it is administered by the I.V. route, another experiment was performed in which this product was administered by the I.P. route and the I.V. route for the purposes of comparison.
This experiment is carried out under particularly difficult conditions, the first day of the treatment corresponding to the eighth day after the implantation of the carcinoma C38, whereas normally the treatment starts on the day of implantation of the tumor (D0) or 1 day after (D1) the implantation of the tumor.
The median weight of the tumors on the first day of treatment (day 8) is about 12 mg (tumors varying from 8 to 40 mg). The animals are treated on days 8, 12 and 16 depending on the different routes indicated. […]

melanoma B16 [1] = assay: activity toward melanoma B16 implanted subcutaneously, I.V. route; type: in vivo, mouse; conditions: 20 mg/kg/inj. days 3, 7, 11
Protocol: The activity of the substances of the invention was also tested by administering the said substances of the invention by the I.V. route. 0.5 ml of an homogenate of the tumor (1 g/10 ml) is administered to B6C3F1 female mice by the subcutaneous (S.C. route) on day 0. The products of the invention and the substances used for comparison are administered on days 3, 7 and 11 in isotonic solution.
In Table IIA below the results are presented relating to the activity of the substance CI. 1675 administered by the I.V. route on the growth of the melanoma B16 implanted subcutaneously, in comparison with carmustine BCNU marketed under the name of BiCNU®.
In Table IIA below and in the subsequent tables, T represents the mean weight (or median) of the tumors in the treated mice, C represents the mean weight (or median) of the tumors in the control, untreated mice and the ratio T/C% corresponds to T/C×100.

Tumor LEWIS 3LL = assay: "in vivo" activity on Lewis tumor, 20 mg/kg i.p. days 1, 5, 9; parameters: species or system mouse; conditions: for percentage of cured mice: surviving more than 60 days
Protocol: Procedure was under the conditions which have just been described previously with regard to melanoma B16, by injecting the tumor cells, in the proportion of 2×10^6 per mouse, in the volume of 0.2 ml.
(§1) The protocol was identical for the 3 tumors and the 5 compounds of the invention to be tested.
(§2) As regards the experimental series to be treated, each mouse received, at days 1, 5 and 9, intraperitoneally, a dose of 20 mg/kg of the compound to be tested, in the volume of 0.2 ml of neutralized and sterilized olive oil.
(§3) As regards the control series, each mouse received, intraperitoneally, 0.2 ml of neutralized and sterilized olive oil.
(§4) The results are expressed by the relative increase in survival (T/C×100) calculated from the average survival of the treated animals (T) and that of the control animals (C)
(§5) The mice surviving more than 60 days were considered as cured.
(§6) The figures between parentheses indicate the percentage of cured mice.

L 1210 USA Tumor = assay: "in vivo" activity on L1210 U.S.A. tumor, 5 mg/kg i.p. days 1, 5, 9; parameters: species or system mouse
Protocol: The tumor L1210 U.S.A. is more resistant than tumor L1210 IGR.
(§7) The experiments were identical to those described in preceding paragraph 4 but lower doses were used.
There were inoculated into the mice, 10^5 tumor cells of L1210 U.S.A. intraperitoneally in a volume of 0.2 ml.
At days 1, 5 and 9, the compounds of the invention under test were injected intraperitoneally, at a lower dose than that used in the experiment described at 4, that is to say in the proportion of 5 mg/kg.

leucemia L 1210 IGR = assay: "in vivo" activity on leucemia L1210 IGR, 20 mg/kg i.p. days 1, 5, 9; parameters: species or system mouse; conditions: for percentage of cured mice: surviving more than 60 days
Protocol: Female DBA2 mice were used, about 8 weeks old and weighing about 20 g from the IFFA-CREDO center (les Oncins, 69210 Arbresles)
At day "0", each mouse received intraperitoneally an inoculum of […] in a volume of 0.2 ml.
After tumoral graft, the mice were distributed at random into 21 cages of 5 animals, themselves then distributed, by drawing lots, into 6 experimental series. Within these 6 experimental series, there were constituted a control series of 6 cages and 5 experimental series of 3 cages each, and of which the mice were intended to be treated by the compounds of the invention.
as §1, §2, §3, §4, §5, §6

L 1210 IGR TUMOR = assay: "in vivo" activity on L1210 IGR tumor, 5 mg/kg i.p. days 1, 5, 9; parameters: species or system mouse
Protocol: as §7
The same protocol was carried out with the tumor L1210 IGR, by inoculating 10^5 tumor cells of L1210 IGR intraperitoneally in the volume of 0.2 ml then, at days 1, 5 and 9, there were injected intraperitoneally 5 mg/kg of each of the compounds to be tested.

melanoma B16 [2] = assay: "in vivo" activity on melanoma B16, 20 mg/kg i.p. days 1, 5, 9; parameters: species or system mouse; conditions: for percentage of cured mice: surviving more than 60 days
Protocol: Female C57 B 1/6 mice were used, about 8 weeks old and weighing about 20 g, from the IFFA-CREDO center.
At day "0", each mouse received intraperitoneally an inoculum of 2×10^6 tumor cells in a volume of 0.5 ml.
After tumoral graft, distribution at random was carried out as indicated above, to obtain a control series of 8 cages and 5 experimental series of 4 cages each, and of which the mice were intended to be treated by the compounds of the invention.
as §1, §2, §3, §4, §5, §6

L 1210 cells = assay: cytotoxic index after 1 h contact, potential "in vivo" activity (TEST N° 2); type: cell-based, mouse
Protocol: The test used is that of W. J. Durkin et al. Cancer Research 1979, 39, 402-407, modified.
All the nitrosoureas were dissolved in 70% ethanol in the proportion of 10 mg/ml.
2--Determination of the potential "in vivo" activity
L 1210 cells, under conditions similar to the preceding protocol, were contacted for 1 hour with a dose of the various products tested corresponding to a cytotoxic index equal to 20%. After this time, the cells were placed in culture medium not containing nitrosoureas and incubated at 37° C. After 48 hours, the cytotoxic index was determined.

[3] = toxicological results, single I.P. dose, DL0 and DL50; type: in vivo, mouse; conditions: mice
Excerpt: DL0, DL50, single I.P. dose administered to the aforementioned strains of mice.

SMILES	relative increase in survival (T/C×100) (Tumor LEWIS 3LL)	percentage of cured mice (Tumor LEWIS 3LL)	Average survival ±2 σm (L 1210 USA Tumor)	Median survival (L 1210 USA Tumor)	T/C × 100 (average survival) (L 1210 USA Tumor)	T/C × 100 (median survival) (L 1210 USA Tumor)	relative increase in survival (T/C×100) (leucemia L 1210 IGR)	percentage of cured mice (leucemia L 1210 IGR)	Median survival (L 1210 IGR TUMOR)	T/C × 100 (average survival) (L 1210 IGR TUMOR)	T/C × 100 (median survival) (L 1210 IGR TUMOR)	relative increase in survival (T/C×100) (melanoma B16 [2])	percentage of cured mice (melanoma B16 [2])	further results
O=NN(CCCl)C(=O)NCCCl [BCNU, (1,3-bis-2-chloroethyl)-1-nitrosourea, reference compound]	–	–	–	–	–	–	–	–	–	–	–	–	–	Median wt. of the tumor D20 (colon carcinoma C38): 196; Median wt. of the tumor D27 (colon carcinoma C38): 274; Mice without tumor/total D20 (colon carcinoma C38): 0/8; Mice without tumor/total D27 (colon carcinoma C38): 0/6; T/C % D20 (colon carcinoma C38): 34%; T/C % D27 (colon carcinoma C38): 21%; Median weight of the tumor on day 3 (melanoma B16 [1]): 40 mg; Median weight of the tumor on day 30 (melanoma B16 [1]): 2 581 mg; T/C on day 30 (tumor weight) (melanoma B16 [1]): 33,0%
CO[C@@H]1C[C@@H](NC(=O)N(CCCl)N=O)[C@H](O)[C@@H](CO)O1 [IC 1184, Methyl 3-[3-(2-chloroethyl) 3-nitrosoureido] 2,3-didesoxy α-D-arabinohexopyranoside]	.infin. (The sign 00 indicates that 50% at least of the mice were cured)	90%	18 ± 1,19	17,8	209	205	556	47%	24	378	265	235	15%	–
CO[C@@H]1C[C@@H](NC(=O)N(CCCl)N=O)[C@H](O)[C@@H](CNC(=O)N(CCCl)N=O)O1 [IC 1374, Methyl bis 3,6-[3-(2-chloroethyl) 3-nitrosoureido] 2,3,6-tridesoxy α-D-arabinohexopyranoside]	.infin. (The sign 00 indicates that 50% at least of the mice were cured)	75%	12,9 ± 0,55	13,1	150	151	.infin. (The sign 00 indicates that 50% at least of the mice were cured)	67%	16,75	189	185	246	10%	CYTOTOXIC INDEX (L 1210 cells; 1 hour contact at dose giving 20% index, read after 48 hours): 71%; POTENTIAL "IN VIVO" ACTION (L 1210 cells; active if cytotoxic index ≥40%): + (if the cytotoxic index was equal to or greater than 40%, the product concerned would be active "in vivo" in the mouse); Average survival ±2 σm (L 1210 IGR TUMOR): 17,1 ± 2,10
CO[C@H]1O[C@H](C)C[C@H](NC(=O)N(CCCl)N=O)[C@H]1O [IC. 85-1590, methyl 3-[3-(2-chloroethyl) 3-nitroso-ureido] 3,4,6-trideoxyα-D-xylo-hexopyranoside]	–	–	–	–	–	–	–	–	–	–	–	–	–	DL0 [3]: ≥ 25 mg/kg
